Results from publication PMC11876601 (Molecular Systems Biology, 2025).
Like-named read-outs stand apart in the source and are kept apart here.

What was measured:
Assay in all cases: cells
[1] = tested on: Colo-357; design: ATPlite luminescence viability of PDAC cell lines, 11-dose single-agent curves, 4-parameter fit; settings: Homo sapiens, COLO357, 72 h, read-out: EC50 [nM]
Summary of the method: (§1)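 Drug-combination screening used cells plated at 1000 to 5000 per well one day before treatment. Final DMSO was 0.2%. Each plate held untreated negative-control wells and 5 µM staurosporine positive-control wells.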

[2] = tested on: BxPC-3; design: ATPlite luminescence viability of PDAC cell lines, 11-dose single-agent curves, 4-parameter fit; settings: Homo sapiens, BXPC-3, 72 h, read-out: EC50 [nM]
Summary of the method: as §1

[3] = tested on: FAMPAC; design: ATPlite luminescence viability of PDAC cell lines, 11-dose single-agent curves, 4-parameter fit; settings: 72 h, read-out: EC50 [nM]
Summary of the method: as §1

[4] = tested on: PaTu-8988-T; design: ATPlite luminescence viability of PDAC cell lines, 11-dose single-agent curves, 4-parameter fit; settings: Homo sapiens, PaTu 8988t, 72 h, read-out: EC50 [nM]
Summary of the method: as §1

[5] = tested on: Dan-G; design: ATPlite luminescence viability of PDAC cell lines, 11-dose single-agent curves, 4-parameter fit; settings: 72 h, read-out: EC50 [nM]
Summary of the method: as §1

[6] = tested on: AsPC-1; design: ATPlite luminescence viability of PDAC cell lines, 11-dose single-agent curves, 4-parameter fit; settings: Homo sapiens, ASPC1, 72 h, read-out: EC50 [nM]
Summary of the method: as §1

[7] = tested on: HPDE; design: ATPlite luminescence viability of PDAC cell lines, 11-dose single-agent curves, 4-parameter fit; settings: HPDE, 72 h, read-out: EC50 [nM]
Summary of the method: as §1

[8] = tested on: Suit2-07; design: ATPlite luminescence viability of PDAC cell lines, 11-dose single-agent curves, 4-parameter fit; settings: 72 h, read-out: EC50 [nM]
Summary of the method: as §1

[9] = tested on: MiaPaCa-2; design: ATPlite luminescence viability of PDAC cell lines, 11-dose single-agent curves, 4-parameter fit; settings: Homo sapiens, MIA PaCa-2, 72 h, read-out: EC50 [nM]
Summary of the method: as §1

[10] = tested on: Capan-1; design: Viability of PDAC cell lines, ATPlite luminescence, 11-dose single-agent curve fit; settings: Homo sapiens, CAPAN-1, 72 h, read-out: EC50 [nM]
Summary of the method: (§2)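 screening used cells plated at 1000 to 5000 per well one day before treatment. Final DMSO was 0.2%. Each plate held untreated negative-control wells and 5 µM staurosporine positive-control wells.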

[11] = tested on: PANC-1; design: Viability of PDAC cell lines, ATPlite luminescence, 11-dose single-agent curve fit; settings: Homo sapiens, PANC-1, 72 h, read-out: EC50 [nM]
Summary of the method: as §2

[12] = tested on: PSN-1; design: Viability of PDAC cell lines, ATPlite luminescence, 11-dose single-agent curve fit; settings: Homo sapiens, PSN1, 72 h, read-out: EC50 [nM]
Summary of the method: as §2

[13] = tested on: HuP-T4; design: Viability of PDAC cell lines, ATPlite luminescence, 11-dose single-agent curve fit; settings: Homo sapiens, HuP-T4, 72 h, read-out: EC50 [nM]
Summary of the method: as §2

[14] = tested on: PSN-1; design: ATPlite luminescence viability of PDAC cell lines, 11-dose single-agent curves, 4-parameter fit; settings: Homo sapiens, PSN1, 72 h, read-out: EC50 [nM]
Summary of the method: as §1

[15] = tested on: Colo-357; design: Viability of PDAC cell lines, ATPlite luminescence, 11-dose single-agent curve fit; settings: Homo sapiens, COLO357, 72 h, read-out: EC50 [nM]
Summary of the method: as §2

[16] = tested on: Capan-1; design: ATPlite luminescence viability of PDAC cell lines, 11-dose single-agent curves, 4-parameter fit; settings: Homo sapiens, CAPAN-1, 72 h, read-out: EC50 [nM]
Summary of the method: as §1

[17] = tested on: PaTu-8988-T; design: Viability of PDAC cell lines, ATPlite luminescence, 11-dose single-agent curve fit; settings: Homo sapiens, PaTu 8988t, 72 h, read-out: EC50 [nM]
Summary of the method: as §2

[18] = tested on: AsPC-1; design: Viability of PDAC cell lines, ATPlite luminescence, 11-dose single-agent curve fit; settings: Homo sapiens, ASPC1, 72 h, read-out: EC50 [nM]
Summary of the method: as §2

[19] = tested on: HPDE; design: Viability of PDAC cell lines, ATPlite luminescence, 11-dose single-agent curve fit; settings: HPDE, 72 h, read-out: EC50 [nM]
Summary of the method: as §2

[20] = tested on: Suit2-07; design: Viability of PDAC cell lines, ATPlite luminescence, 11-dose single-agent curve fit; settings: 72 h, read-out: EC50 [nM]
Summary of the method: as §2

[21] = tested on: MiaPaCa-2; design: Viability of PDAC cell lines, ATPlite luminescence, 11-dose single-agent curve fit; settings: Homo sapiens, MIA PaCa-2, 72 h, read-out: EC50 [nM]
Summary of the method: as §2

[22] = tested on: Dan-G; design: Viability of PDAC cell lines, ATPlite luminescence, 11-dose single-agent curve fit; settings: 72 h, read-out: EC50 [nM]
Summary of the method: as §2

[23] = tested on: BxPC-3; design: Viability of PDAC cell lines, ATPlite luminescence, 11-dose single-agent curve fit; settings: Homo sapiens, BXPC-3, 72 h, read-out: EC50 [nM]
Summary of the method: as §2

[24] = tested on: FAMPAC; design: Viability of PDAC cell lines, ATPlite luminescence, 11-dose single-agent curve fit; settings: 72 h, read-out: EC50 [nM]
Summary of the method: as §2

Row | Structure (SMILES) | EC50 [1] [nM] | EC50 [2] [nM] | EC50 [3] [nM] | EC50 [4] [nM] | EC50 [5] [nM] | EC50 [6] [nM] | EC50 [7] [nM] | EC50 [8] [nM] | EC50 [9] [nM] | EC50 [10] [nM] | EC50 [11] [nM] | EC50 [12] [nM] | EC50 [13] [nM] | EC50 [14] [nM] | EC50 [15] [nM] | EC50 [17] [nM] | EC50 [18] [nM] | further results
1 | COc1cc2/c(=N/c3ccc(Br)cc3F)nc[nH]c2cc1OCC1CCN(C)CC1 [Vandetanib] | 6050 | 3600 | > 10000 | > 10000 | > 10000 | > 10000 | 1520 | > 10000 | > 10000 | > 10000 | 3860 | > 10000 | 23.9 |  |  |  |  | 
2 | O=C1CCc2c(Oc3ccc4c(c3)[C@@H]3[C@H](O4)[C@H]3c3nc4cc(C(F)(F)F)ccc4[nH]3)ccnc2N1 [Lifirafenib] |  | 3060 | 2510 | 2540 | 2000 | 966 | 1980 | > 10000 | 2650 | 9370 | > 10000 |  | 4500 | 696 | 3500 |  |  | 
3 | COc1cc(Nc2ncc3c(n2)-c2ccc(Cl)cc2C(c2c(F)cccc2OC)=NC3)ccc1C(=O)O [Alisertib] | 291 | 848 | 68.6 |  | 914 |  |  |  | 87 |  | 95.6 |  | 64.4 | 846 |  | 274 | 405 | EC50 [16]: 427 nM; EC50 [19]: 2700 nM; EC50 [20]: 272 nM
4 | C[C@@H]1COC(Nc2ccc3ncnc(Nc4ccc(OCc5nccs5)c(Cl)c4)c3c2)=N1 [Varlitinib] | 676 | 1760 | > 10000 |  | 630 |  | 1930 |  |  | 724 | > 10000 | 2940 | 40.5 |  |  | 861 | 390 | EC50 [20]: 2070 nM; EC50 [21]: 4440 nM
5 | C=CC(=O)Nc1cccc(Oc2nc(Nc3ccc(N4CCN(C)CC4)cc3)nc3ccsc23)c1 [Olmutinib] |  | 5220 | > 10000 | > 10000 | > 10000 | 6710 | 3900 | 7100 | 5290 | > 10000 | > 10000 |  | 2230 | 7020 | 8230 |  |  | 
6 | CN(C)CCCOc1ccc(-c2ccc3ncc4c(c3c2)n(C2CCOCC2)c(=O)n4C)cn1 [AZD-0156] | 6410 | 5990 | 1890 | 606 |  | > 10000 | 10400 | 1960 | 1010 | > 10000 | > 10000 |  |  | 3260 |  |  |  | EC50 [22]: 4160 nM
7 | CCN(CC)CCNC(=O)c1c(C)[nH]c(/C=C2\C(=O)Nc3ccc(F)cc32)c1C [Sunitinib] |  | 2840 | 5670 | 2190 | 4120 | > 10000 | 5050 | 3180 | 2340 | > 10000 | > 10000 |  | 114 | 5160 | 10100 |  |  | 
8 | CCn1c(=O)c(-c2cc(NC(=O)Nc3ccccc3)c(F)cc2Br)cc2cnc(NC)cc21 [Ripretinib] |  | 467 | 912 | 717 | 501 | 1270 | 901 | 431 | 589 | 758 | > 10000 |  | 592 | 582 | 611 |  |  | 
9 | NC(=O)c1cccc2cn(-c3ccc([C@@H]4CCCNC4)cc3)nc12 [Niraparib] | 1160 |  | 3370 |  | 1710 |  |  | 1010 | 2020 |  | 3580 |  | 10.5 | 1740 |  | 4150 | > 10000 | EC50 [16]: 3180 nM; EC50 [23]: 1010 nM; EC50 [19]: 4720 nM
10 | C[C@]1(O)C[C@@H](c2nc(-c3ccc4ccc(-c5ccccc5)nc4c3)c3c(N)nccn32)C1 [Linsitinib] |  |  |  |  |  | 1540 | 7060 | 239 | 416 | 1750 | > 10000 | 7340 | 21.6 |  | 4180 | 6100 |  | EC50 [23]: > 10000 nM; EC50 [24]: 4850 nM; EC50 [22]: 3840 nM
